Usually IC50 stands for the point on the concentration scale where inhibition reaches its midpoint. By EC50 is commonly meant the concentration giving half of the maximal effect.

The subject of one assay is TOV-21G (ovarian). In words: Cancer cell proliferation assay (acid phosphatase). The format is cell-based. Conditions: Homo sapiens, TOV21G, 72 h, Table 6A; 72 hrs; read-out: TOV-21G IC50. On the procedure:
Measurement of the inhibitive effect of compounds on cancer cell proliferation was performed. Various cell lines were tested, including HCT-116 (colon); A549 (lung); TOV-21G (ovarian); Calu-6 (lung); and LS-174T (colon); and cell lines H1703 (Lung) and SKOV3 (ovarian); JEKO-1 (lymophoma); TOV-112D (ovarian) are tested. The assays were performed under the following conditions: Cells are harvested at a concentration of 4×10^4 cells/ml in media. Volumes of 100 μl/well of these cell suspensions were added to a 96 well plate using a multichannel pipette. Plates were gently agitated to ensure an even dispersion of cells over a given plate. Cells were then incubated at 37° C., 5% CO2 overnight. Following this, 100 μl of compound at varying concentrations was added to wells in triplicate. Control wells are those with 100 μl media containing 0.33% DMSO added to cell suspension (this is the equivalent volume of DMSO found in the highest concentration of drug). Plates were then gently agitated, as above, and incubated at 37° C., 5% CO2 for 72 hrs (control wells have reached 80-90% confluency). Assessment of cell proliferation in the presence of the compound was determined by the acid phosphatase assay.
Following the incubation period of 72 hrs, media was removed from the plates. Each well on the plate was washed twice with 100 μl PBS. This was then removed and 100 μl of freshly prepared phosphatase substrate (10 mM p-nitrophenol phosphate in 0.1M sodium acetate, 0.1% triton X-100, pH 5.5) was added to each well. The plates were then incubated in the dark at 37° C. for 2 hours. Colour development was monitored during this time. The enzymatic reaction was stopped by the addition of 50 μl of 1N NaOH. The plate was read in a dual beam plate reader at 405 nm with a reference wavelength of 620 nm. The absorbance reading of the latter is subtracted from the former, and the effect of the drug on cell proliferation was then measured as a percentage against the control cells (DMSO), which is taken as 0% inhibition.

For the next assay, the target named is T1, Parkin ligase (Homo sapiens, UniProt O60260).
T1 sequence (O60260 1-465): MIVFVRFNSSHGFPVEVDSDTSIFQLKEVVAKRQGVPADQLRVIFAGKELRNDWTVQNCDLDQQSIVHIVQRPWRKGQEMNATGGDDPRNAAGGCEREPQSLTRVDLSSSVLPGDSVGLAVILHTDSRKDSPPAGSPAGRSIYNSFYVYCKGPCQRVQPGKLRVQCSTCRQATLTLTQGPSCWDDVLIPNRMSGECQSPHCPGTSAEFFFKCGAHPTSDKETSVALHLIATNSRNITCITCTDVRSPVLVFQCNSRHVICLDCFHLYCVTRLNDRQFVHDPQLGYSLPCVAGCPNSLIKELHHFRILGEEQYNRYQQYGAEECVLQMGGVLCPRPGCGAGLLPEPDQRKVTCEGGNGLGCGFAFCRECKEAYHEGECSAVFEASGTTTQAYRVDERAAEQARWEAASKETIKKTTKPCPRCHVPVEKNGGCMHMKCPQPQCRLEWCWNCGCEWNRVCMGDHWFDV
The assay is described as follows: Activity-Based Probe Assay using Ubiquitin vinyl sulfone probe (TR-FRET). The format is biochemical. Conditions: heat activated Parkin, HA-Ub-VS probe, activation EC50; read-out: Probe Assay EC50 (μM) [Example 2]. On the procedure: An Ubiquitin vinyl sulfone probe can be used that irreversibly binds to the active site cysteine of Parkin ligase. Covalent attachment of the probe to the Parkin can be monitored by TR-FRET. Candidate activator compounds can be identified by increasing the activity of Parkin ligase due to an increase in TR-FRET signal. Screening for activating compounds can be distinguished from the controls as follows: 100% activation signal=Heat activated Parkin+100 nM control activator in DMSO. 0% activation signal=Heat activated Parkin+DMSO only. Parkin activators can be identified by an increase of the 0% activation signal TR-FRET signal. Assay Conditions: Materials: • Assay Plate: White 384 well plate (Corning 3572) • Enzyme: Parkin-His tagged 203 μM (10.5 mg/ml) • Probe: Ubiquitin vinyl-sulfone (HA-Ub-VS Boston Biochem U-212) • DMSO: DMSO (Sigma cat #D4540-100ML) • Reaction Buffer: 50 mM HEPES (pH 8.5), 150 mM NaCl, 0.01% Tween 20, 0.1% BSA • Detection Buffer: 50 mM HEPES (pH 8.5), 150 mM NaCl, 0.01% Tween 20, 0.1% BSA, 800 mM KF • Detection Reagent A: 2.6 nM Anti-6HIS-Eu cryptate and 40 nM Anti-HA-XL665 in detection buffer • Eu cryptate: Anti-6HIS-Eu cryptate (CisBio 61HISKLA) • XL665: Anti-HA-XL665 (CisBio 610HAXLA) Enzyme Reaction (15 Min Pre Incubation Parkin with Activator Only) • Parkin: 40 nM • HA-Ub-VS Probe: 70 nM • Activator/DMSO: 2× Activator/2% DMSO Reaction time: 60 minutes Temperature: 22° C. Total volume: 10 μl reaction Detection Reaction Take […] of Enzyme Reaction above and add 10 μl detection Reagent A under the following conditions: • Reaction time: 60 minutes • Temperature: 22° C. • Total volume: 20 μl
Assay procedure (Using HP D-300 compound dispenser and Bravo for the operation):
1) Heat activate Parkin in reaction buffer (500 μl/1.5 ml tube: Eppendorf Thermomixer 5 minutes, 400 rpm at 58° C. and put on ice until needed).
2) Load assay plate wells with 4.8 μl 84.5 nM Parkin in reaction buffer by use of Bravo.
3) Deliver 0.2 μl 200× activator candidates in DMSO by use of HP D-300 compound dispenser. Highest 200× concentration=[…] and then twofold dilutions.
4) Spin 1000 rpm, 2 minutes, at room temp.
5) Incubate plate for 15 minutes at room temp.
6) Add 5 μl 140 nM HA-Ub-VS Probe in reaction buffer by use of Bravo.
7) Spin 1000 rpm, 2 minutes, at room temp.
8) Incubate plate for 60 minutes at room temp.
9) Add 10 μl 2.6 nM Anti-6HIS-Eu cryptate and 40 nM […] in detection buffer.
10) Spin 1000 rpm, 2 minutes, at room temp.
11) Incubate plate for 60 minutes at room temp.
12) Read plates on Perkin Elmer Envision instrument with the following parameters:
LANCE dual laser protocol loaded into the Envision® software
Top Mirror: LANCE/DELFIA Duel/Bias (Bar code 446)
Emission Filter: APC 665 EM (Bar code 205)
2nd Emission Filter: Europium 615 EM (Bar code 203)
Read 655 nm (channel 1) and 615 nm (channel 2) wavelengths on Envision®
Data Analysis: The Data can be read in CSV files. There are two tables in those CSV files, which are the values of 655 nm (channel 1) and 615 nm (channel 2) wavelengths respectively. The data is converted to an HTRF Ratio=(Channel 1/Channel 2)*10,000
The average of all the 0 μM controls (DMSO only)=BKGD (Background—0% activation). Subtract BKGD from each HTRF Ratio value=HTRF−BKGD. The average of all the […] 100 nM control activator in DMSO controls=Max (100% activation). The following equation is then used to calculate % Activation for each well/candidate as follows: % Activation=(HTRF−BKGD/Max)*100.
Graphpad Prism was used with Transform X values: X=Log(X) and nonlinear regression (dose-response-stimulation): Log(agonist) vs Response−variable slope (four parameters) with constrains set to Bottom=0 and Top=100.
The Activity-Based Probe Assay was performed with various compounds in Tables 1, 2, 3A and 3B.
In general terms: Time-resolved FRET reads energy transfer from a long-lived donor to a nearby acceptor.

Several values for one entry are separate records, joined by “and”; a condition that tells them apart may be missing. Identical values can stand only once. A value given as a limit tells only on which side of the number the result lay.

In the case of `Cc1ccccc1C(=O)Nc1nc(NC(=O)[C@@H]2C[C@H](F)CN2)nn1-c1ccccc1` [Compound 3], the IC50 in the assay with TOV-21G (ovarian) amounted to 2.4 µM. The concentration giving a half-maximal response (EC50) on Parkin ligase is 16 µM and > 100 µM.

Consider `Cc1ccccc1C(=O)Nc1nc(NCCc2ccccn2)nn1-c1ccccc1` [Compound 97], for which the EC50 on Parkin ligase was 14 µM.

Regarding `Cc1c(C(=O)Nc2nc(NC(=O)c3ccnc(F)c3C)n(-c3ccccc3)n2)ccnc1F` [Compound 98], the EC50 at Parkin ligase is 5 µM.

For `Cc1cnccc1C(=O)Nc1nc(NC(=O)c2ccncc2C)n(-c2ccccc2)n1` [Compound 99], the EC50 on Parkin ligase came out at 13 µM.

On to `Cc1cccc(C)c1C(=O)Nc1nc(NC(=O)c2c(C)cccc2C)n(-c2ccccc2)n1` [Compound 100], for which the EC50 on Parkin ligase came to 9 µM.

For the molecule `Cc1ccccc1C(=O)Nc1nc(NCc2ccccn2)nn1-c1ccccc1` [Compound 101], the half-maximal effective concentration (EC50) at Parkin ligase was 18 µM.

With `Cc1ccccc1C(=O)Nc1nc(NCCc2ccccc2)nn1-c1ccc(C(F)(F)F)cc1` [Compound 103], at Parkin ligase, the EC50 turned out to be 1 µM.

Regarding `Cc1ccccc1C(=O)Nc1nc(NCc2ccccc2)nn1-c1ccc(OC(F)(F)F)cc1` [Compound 105], the EC50 at Parkin ligase amounted to 1 µM.

Turning to `Cc1ccccc1C(=O)Nc1nc(NCCc2ccccc2)nn1-c1ccc(OC(F)(F)F)cc1` [Compound 106], the concentration for a half-maximal effect (EC50) at Parkin ligase is above 100 µM.

Consider `COc1ccc(CNc2nc(NC(=O)c3ccccc3C)n(-c3ccc(OC(F)(F)F)cc3)n2)cc1` [Compound 107], for which, at Parkin ligase, the concentration giving a half-maximal response (EC50) is 1 µM.

Turning to `Cc1ccccc1C(=O)Nc1nc(NCCc2ccccc2)nn1-c1ccc(Cl)cc1` [Compound 109], the EC50 at Parkin ligase is 1 µM.

Take `COc1cccc(CNc2nc(NC(=O)c3ccccc3C)n(-c3ccc(OC(F)(F)F)cc3)n2)c1` [Compound 110]: the EC50 on Parkin ligase was found to be 2 µM.

Consider `COc1ccccc1CNc1nc(NC(=O)c2ccccc2C)n(-c2ccc(OC(F)(F)F)cc2)n1` [Compound 111], for which, on Parkin ligase, the EC50 was 2 µM.

For the molecule `Cc1ccccc1C(=O)Nc1nc(NCc2cccc(Cl)c2)nn1-c1ccc(OC(F)(F)F)cc1` [Compound 112], the EC50 at Parkin ligase is 1 µM.

On to `Cc1ccccc1C(=O)Nc1nc(NCc2ccc(Cl)cc2)nn1-c1ccc(OC(F)(F)F)cc1` [Compound 113], for which the EC50 on Parkin ligase was found to be 0.8 µM.

In the case of `Cc1ccccc1C(=O)Nc1nc(N[C@H](C)c2ccccc2)nn1-c1ccccc1` [Compound 114], the EC50 on Parkin ligase is 2 µM.

`Cc1ccccc1C(=O)Nc1nc(N[C@@H](C)c2ccccc2)nn1-c1ccccc1` [Compound 115]: at Parkin ligase, the EC50 is 3 µM.

In the case of `Cc1ccccc1C(=O)Nc1nc(N[C@@H](C)c2ccccc2)nn1-c1ccc(OC(F)(F)F)cc1` [Compound 117], the concentration for a half-maximal effect (EC50) at Parkin ligase worked out at 2 µM.

On to `Cc1ccccc1C(=O)Nc1nc(N[C@H](C)c2ccccc2)nn1-c1ccc(OC(F)(F)F)cc1` [Compound 118], for which the EC50 on Parkin ligase was 1 µM.

`Cc1ccccc1C(=O)Nc1nc(NC(=O)c2c(F)cccc2F)nn1-c1ccccc1` [Compound 119]: the EC50 on Parkin ligase turned out to be 2 µM.

Consider `Cc1ccccc1C(=O)Nc1nc(N[C@@H](C)c2ccccc2)nn1-c1ccc(C(F)(F)F)cc1` [Compound 120], for which the EC50 at Parkin ligase was 1 µM.

Regarding `Cc1ccccc1C(=O)Nc1nc(-c2cn(C)cn2)nn1-c1ccccc1` [Compound 125], the EC50 on Parkin ligase is above 100 µM.

Consider `Cc1ccccc1C(=O)Nc1nc(-c2cccc[n+]2[O-])nn1-c1ccccc1` [Compound 130], for which, at Parkin ligase, the EC50 turned out to be 5 µM.

`Cc1ccccc1C(=O)Nc1nc(-c2cscn2)nn1-c1ccccc1` [Compound 135]: the EC50 on Parkin ligase was above 100 µM.

For the molecule `Cc1ccccc1C(=O)Nc1nc(-c2ncccc2F)nn1-c1ccccc1` [Compound 136], the concentration giving a half-maximal response (EC50) at Parkin ligase is above 100 µM.

As for `c1ccc(CNc2nc(NCc3ccccc3)n(-c3ccccc3)n2)cc1` [Compound 138], the concentration giving a half-maximal response (EC50) on Parkin ligase is above 100 µM.

Take `Cc1ccccc1C(=O)Nc1nc(-c2ncccc2C)nn1-c1ccc(OC(F)(F)F)cc1` [Compound 139]: the concentration for a half-maximal effect (EC50) on Parkin ligase came to 0.9 µM.

Consider `Cc1ccccc1C(=O)Nc1nc(-c2cocn2)nn1-c1ccccc1` [Compound 140], for which the EC50 at Parkin ligase was above 100 µM.

As to `Cc1ccccc1C(=O)Nc1nc(-c2ncccc2C)nn1-c1ccc(C(F)(F)F)cc1` [Compound 141], at Parkin ligase, the EC50 worked out at 1 µM.

In the case of `Cc1ccccc1C(=O)Nc1nc(-c2ncccc2C)nn1-c1ccc(Cl)cc1` [Compound 142], at Parkin ligase, the EC50 was 0.3 µM.

For the molecule `c1ccc(CCNc2nc(NCCc3ccccc3)n(-c3ccccc3)n2)cc1` [Compound 143], the EC50 at Parkin ligase is above 100 µM.

`c1ccc(-n2nc(NCc3ccccn3)nc2NCc2ccccn2)cc1` [Compound 144]: the 50% effective concentration (EC50) on Parkin ligase was above 100 µM.

With `c1ccc(-n2nc(NCCc3ccccn3)nc2NCCc2ccccn2)cc1` [Compound 145], at Parkin ligase, the EC50 was above 100 µM.

Take `Cn1cnc(-c2nc(N)n(-c3ccccc3)n2)c1` [Compound 147]: the concentration for a half-maximal effect (EC50) at Parkin ligase is above 100 µM.

On to `Cc1ccccc1C(=O)N(C(=O)c1ccccc1)c1nc(N)n(-c2ccccc2)n1` [Compound 148], for which, at Parkin ligase, the 50% effective concentration (EC50) was above 100 µM.
